Data taken from paper PMC4847174, “C1, a highly potent novel curcumin derivative, binds to tubulin, disrupts microtubule network and induces apoptosis” (Bioscience Reports, 2016).

Key:
[1] = target: T1, tubulin; assay: quenching of intrinsic tryptophan fluorescence; gel filtration co-elution; curcumin displacement; polymerization inhibition; assay type: binding, Capra hircus
T1 construct: tubulin purified from goat brain

[2] = target: T1, tubulin; assay: quenching of intrinsic tryptophan fluorescence; assay type: binding, Capra hircus

Row | Compound | Kd [1] | Kd [2]
1 | COc1cc(/C=C/C(=O)C(=CC2CCN(C(=O)OC(C)(C)C)CC2)C(=O)/C=C/c2ccc(O)c(OC)c2)ccc1O [C1, 4-{5-(4-hydroxy-3-methoxy-phenyl)-2-[3-(4-hydroxy-3-methoxy-phenyl)-acryloyl]-3-oxo-penta-1,4-dienyl}-piperidine-1-carboxylic acid tert-butyl ester] | 2.8 ± 1 µM | –
2 | COc1cc(/C=C/C(=O)CC(=O)/C=C/c2ccc(O)c(OC)c2)ccc1O [Curcumin] | – | 5.2 ± 0.8 µM
